Laboratory results from US20240336602A1 (Katholieke Universiteit Leuven, priority 2020, published 2024).
Values joined by “and” are separate entries in the source; they are usually repeats but may differ in a detail not shown here. Equal values may be shown once.

Molecular target: T1, mouse TRPM3a2 (mTRPM3) ion channel (Mus musculus, UniProt J9SQF3)
T1 construct: expressed in transfected cells; host or cells: flip-in HEK293
Test: TRPM3 ion channel driven Ca2+ uptake, Fluo-4 AM assay (PS-stimulated, overexpressing flip-in HEK293 cells)
Format: cell-based
Description: In order to monitor the inhibition of the mouse TRPM3a2 (mTRPM3) ion channel by the compounds of the invention, a cellular system making use of an mTRPM3alpha2 or hTRPM3 overexpressing cell line (flip-in HEK293) was used. The TRPM3 channel was stimulated/opened with Pregnenolone sulfate (PS) (50 μM) which results in Ca^2+ influx.
For mTRPM3, the intracellular Ca^2+ was measured with a Calcium responsive dye, Fluor-4 AM ester (Invitrogen). Cells were cultured until a confluence of 80-90%, washed with Versene (Invitrogen) and detached from the surface by a short incubation with 0.05% Trypsin (Invitrogen). The trypsination process was stopped by the addition of complete cell culture medium (DMEM, glutamax, 10% FCS, NEAA, Pen-Strep). Cells were collected and resuspended in Krebs buffer without Calcium at RT.
Prior the cell seeding (±2000 cells/well into a black, 384 well plate (Greiner)) the diluted compound was added in the assay plate, together with the PS dissolved in Krebs buffer containing Calcium. […] Directly after cell addition the plates were read on an Envision fluorescence reader (Perkin Elmer) by an Excitation of 485 nm and emission at 535 nm.
Channel inhibition was calculated compared to a non-PS stimulated control versus a condition stimulated with PS (50 μM) with vehicle. The ability of the compounds of the invention to inhibit this activity was determined as: Percentage inhibition=[1-((RFU determined for sample with test compound present—RFU determined for sample with positive control inhibitor) divided by (RFU determined in the presence of vehicle—RFU determined for sample with positive control inhibitor))]*100.

[1] = PS (50 μM) stimulated, cpd 001-199
[2] = PS (50 μM) stimulated, cpds. 500-599

T1 sequence (J9SQF3 1-1709 isoform J9SQF3-12): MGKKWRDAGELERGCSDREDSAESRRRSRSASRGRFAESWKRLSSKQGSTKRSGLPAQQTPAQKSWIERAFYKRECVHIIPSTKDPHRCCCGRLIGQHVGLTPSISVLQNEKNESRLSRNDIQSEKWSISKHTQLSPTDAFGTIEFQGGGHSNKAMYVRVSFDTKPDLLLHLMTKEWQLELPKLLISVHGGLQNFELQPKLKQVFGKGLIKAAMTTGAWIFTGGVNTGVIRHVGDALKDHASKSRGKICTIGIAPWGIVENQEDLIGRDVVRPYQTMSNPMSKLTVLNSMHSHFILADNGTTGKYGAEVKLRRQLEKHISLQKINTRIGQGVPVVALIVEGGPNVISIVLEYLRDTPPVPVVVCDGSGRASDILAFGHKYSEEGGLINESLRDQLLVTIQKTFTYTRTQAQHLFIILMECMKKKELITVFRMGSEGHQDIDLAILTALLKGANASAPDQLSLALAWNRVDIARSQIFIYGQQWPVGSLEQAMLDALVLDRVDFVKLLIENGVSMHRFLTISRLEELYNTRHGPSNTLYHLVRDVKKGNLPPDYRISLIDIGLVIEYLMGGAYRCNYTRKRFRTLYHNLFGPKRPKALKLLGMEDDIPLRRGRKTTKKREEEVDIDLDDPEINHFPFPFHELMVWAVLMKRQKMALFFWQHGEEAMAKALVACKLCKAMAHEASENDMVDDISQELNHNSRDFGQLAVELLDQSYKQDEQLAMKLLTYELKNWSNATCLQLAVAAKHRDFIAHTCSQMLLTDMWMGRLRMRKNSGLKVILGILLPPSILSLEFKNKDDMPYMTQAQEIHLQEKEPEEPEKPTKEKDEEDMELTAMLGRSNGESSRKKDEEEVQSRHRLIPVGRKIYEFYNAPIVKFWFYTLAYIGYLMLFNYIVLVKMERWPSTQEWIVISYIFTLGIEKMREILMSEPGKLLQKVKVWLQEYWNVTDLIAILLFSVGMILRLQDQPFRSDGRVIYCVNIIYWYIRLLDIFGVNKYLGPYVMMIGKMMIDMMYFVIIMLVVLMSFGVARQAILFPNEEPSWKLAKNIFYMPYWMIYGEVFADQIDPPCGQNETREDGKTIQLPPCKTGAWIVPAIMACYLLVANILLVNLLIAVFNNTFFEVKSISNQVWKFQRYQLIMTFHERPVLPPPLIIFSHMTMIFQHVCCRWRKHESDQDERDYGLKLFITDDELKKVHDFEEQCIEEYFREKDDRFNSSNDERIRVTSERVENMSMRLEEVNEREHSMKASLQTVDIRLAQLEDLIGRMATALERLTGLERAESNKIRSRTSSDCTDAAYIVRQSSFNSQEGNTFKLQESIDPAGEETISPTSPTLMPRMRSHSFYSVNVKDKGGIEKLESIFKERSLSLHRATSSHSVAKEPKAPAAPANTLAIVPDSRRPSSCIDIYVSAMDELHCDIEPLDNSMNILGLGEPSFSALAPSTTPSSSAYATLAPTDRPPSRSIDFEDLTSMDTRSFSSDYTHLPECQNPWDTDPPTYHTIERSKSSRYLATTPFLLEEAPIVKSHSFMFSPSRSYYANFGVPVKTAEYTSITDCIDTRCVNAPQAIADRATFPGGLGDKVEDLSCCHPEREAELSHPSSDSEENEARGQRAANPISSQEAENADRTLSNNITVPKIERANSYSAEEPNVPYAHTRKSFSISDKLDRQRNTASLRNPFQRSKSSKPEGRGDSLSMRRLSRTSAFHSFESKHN

Compound	IC50 [1]	IC50 [2]	further results
Cc1oc2ccc(OCc3ncccc3C(F)(F)F)cc2c1C(=O)NC1CCN(C(=O)OC(C)(C)C)CC1(F)F (centres unmarked) [cpd 096, tert-butyl 3,3-difluoro-4-(2-methyl-5-((3-(trifluoromethyl)pyridin-2-yl)methoxy)benzofuran-3-carboxamido)piperidine-1-carboxylate]	1 to 20 µM		
Cc1oc2ccc(OCc3cccc(O)n3)cc2c1C(=O)NC1CCNCC1(F)F (single isomer, unassigned) [569 - En 1, N-(3,3-difluoropiperidin-4-yl)-2-methyl-5-((6-oxo-1,6-dihydropyridin-2-yl)methoxy)benzofuran-3-carboxamide]		1 to 20 µM	
Cc1ccc(COc2ccc3oc(C)c(C(=O)NC4(CO)CCNC4=O)c3c2)cn1 (single isomer, unassigned) [519 - En 1]		≤ 1 µM	
Cc1oc2ccc(OCc3cccnc3O)cc2c1C(=O)NC1(CO)CCNC1=O (single isomer, unassigned) [521 - En 2]		1 to 20 µM	
Cc1oc2ccc(OCc3ccn(C)n3)cc2c1C(=O)O [cpd 009, 2-methyl-5-((1-methyl-1H-pyrazol-3-yl)methoxy)benzofuran-3-carboxylic acid]	1 to 20 µM		
Cc1oc2ccc(OCc3ccc(C(F)(F)F)o3)cc2c1C(=O)O [cpd 018, 2-methyl-5-((5-(trifluoromethyl)furan-2-yl)methoxy)benzofuran-3-carboxylic acid]	1 to 20 µM		
Cc1oc2ccc(OCc3cccnc3O)c(F)c2c1C(=O)NC1(CO)CCOCC1 [compound 329, 4-fluoro-N-(4-(hydroxymethyl)tetrahydro-2H-pyran-4-yl)-2-methyl-5-((2-oxo-1,2-dihydropyridin-3-yl)methoxy)benzofuran-3-carboxamide]			IC50 (PS (50 μM) stimulated Ca2+ influx, HEK293, cpds 300-399): 1 to 20 µM
Cc1oc2ccc(OCc3ccccn3)cc2c1C(=O)NC1(CO)CCCNC1=O (single isomer, unassigned) [719 - En 1]			IC50 (PS (50 μM) stimulated, cpds. 667-751): ≤ 1 µM
Cc1oc2ccc(OCc3nccs3)cc2c1C(=O)O [cpd 013, 2-methyl-5-(thiazol-2-ylmethoxy)benzofuran-3-carboxylic acid]	1 to 20 µM		
Cc1oc2ccc(OCc3cccc(O)n3)cc2c1C(=O)NC1CCNCC1(F)F (single isomer, unassigned) [569 - En 2, N-(3,3-difluoropiperidin-4-yl)-2-methyl-5-((6-oxo-1,6-dihydropyridin-2-yl)methoxy)benzofuran-3-carboxamide]		≥ 20 µM	
Cc1ncsc1COc1ccc2oc(C(F)F)c(C(=O)NC3(CO)CCOCC3)c2c1 [cpd 197, 2-(difluoromethyl)-N-(4-(hydroxymethyl)tetrahydro-2H-pyran-4-yl)-5-((4-methylthiazol-5-yl)-methoxy)benzofuran-3-carboxamide]	1 to 20 µM		
Cc1oc2ccc(OCc3ccc(C(F)(F)F)o3)cc2c1C(=O)NC1CCN(C)CC1 [cpd 069, 2-methyl-N-(1-methylpiperidin-4-yl)-5-((5-(trifluoromethyl)furan-2-yl)methoxy)benzofuran-3-carboxamide]	1 to 20 µM		
Cc1ncc(COc2ccc3oc(C)c(C(=O)NC4(CO)CCNC4=O)c3c2)o1 (centres unmarked) [515 - En 1]		≤ 1 µM and 1 to 20 µM	
Cc1oc2ccc(OCc3ncccc3C(F)(F)F)cc2c1C(=O)NC1CCNCC1(F)F (centres unmarked) [cpd 076, N-(3,3-difluoropiperidin-4-yl)-2-methyl-5-((3-(trifluoromethyl)pyridin-2-yl)methoxy)benzofuran-3-carboxamide]	1 to 20 µM		
Cc1ncsc1COc1ccc2oc(C)c(C(=O)NC(C#N)C(N)=O)c2c1 (centres unmarked) [cpd 502, N-(2-amino-1-cyano-2-oxoethyl)-2-methyl-5-((4-methylthiazol-5-yl)methoxy)benzofuran-3-carboxamide]		≤ 1 µM	
Cc1ncsc1COc1ccc2oc(C)c(C(=O)NC(CN(C)C)C(N)=O)c2c1 (single isomer, unassigned) [450 - En 1]			IC50 (PS (50 μM) stimulated, cpds. 400-499): ≤ 1 µM
Cc1oc2ccc(OCc3cccn(C)c3=O)cc2c1C(=O)NC1(CO)CCOCC1 [cpd 609, N-(4-(hydroxymethyl)tetrahydro-2H-pyran-4-yl)-2-methyl-5-((1-methyl-2-oxo-1,2-dihydropyridin-3-yl)methoxy)benzofuran-3-carboxamide]			IC50 (PS (50 μM) stimulated, cpds. 600-666): 1 to 20 µM
